XC50 data for 87 compounds are collected here from ChEMBL document CHEMBL1157539, “Thousands of chemical starting points for antimalarial lead identification” (Nature, 2010).

The assay deals with Plasmodium falciparum. The assay is described as follows: GSK_TCMDC: Inhibition of Plasmodium falciparum 3D7 in whole erythrocytes, using parasite LDH activity as an index of growth. It counts as functional, organism-based. As to conditions: Plasmodium falciparum, 3D7.

Compound `O=C(CCc1c[nH]cn1)Nc1cccc(-c2ccc(-c3nc4ccccc4[nH]3)s2)c1` gave an XC50 of 759 nM. `CC(CN1CCN(CC(c2ccc(F)cc2)N2CCN(C)CC2)CC1)C(=O)c1ccc(O)cc1` (configuration not stated) gave an XC50 of 672 nM. To `Cc1ccc(-c2cccc3c(NC(=O)Nc4ccc5nccc(N6CCN(C)CC6)c5c4)cccc23)cn1` belongs 352 nM; to `CN(C)CC(=O)Nc1ccc(Nc2nccc(NCC(O)c3ccccc3)n2)cc1` (configuration not stated), 973 nM; to `O=C(NCCCN1CCOCC1)c1cccc(Nc2nccc(Nc3ccc(Oc4ccccc4)cc3)n2)c1`, 766 nM. `Oc1c(C(Nc2ccccn2)c2ccc(Cl)cc2Cl)ccc2cccnc12` (configuration not stated) had an XC50 of 892 nM.

`COc1ccc2ccccc2c1CCCCN1CCN(CC(c2ccc(F)cc2)N2CCC(N3CCCC3)CC2)CC1` (configuration not stated) yielded an XC50 of 619 nM. Consider `CCn1cc(C(=O)O)c(=O)c2cc(F)c(N3CCN(S(=O)(=O)c4ccc(N)cc4)CC3)cc21`, for which the XC50 was 922 nM. As to `O=C(/C=C/c1cccc(Cl)c1)N1CCC(C(O)CN2CCC3(CC2)CN(C(=O)/C=C/c2cccc(Cl)c2)c2ccccc23)CC1` (configuration not stated), the XC50 came to 892 nM. Consider `Cc1ccccc1N1CCN(c2ncc(C(=O)NC3CC3)cc2Cl)CC1`, for which the XC50 was 628 nM. Take `CC(C)CNCc1ccc(-c2cccc(-c3nc4ccccc4[nH]3)c2)cc1`: the XC50 stood at 626 nM. Next, `CCCC(=O)c1cnc2c(OCCCc3c[nH]cn3)cccc2c1Nc1c(C)cccc1C`: 338 nM; `CCCC(C)Nc1nc(C)cc(N[C@@H](Cc2ccccc2)C(=O)NCc2ccc(C)cc2)n1` (some centres not stated): 1120 nM.

On to `COc1ccc(CC2(c3ccc(F)cc3)N=C(N)N(CCCc3cccnc3)C2=O)cc1` (configuration not stated), for which the XC50 is 668 nM. As to `COCCNCc1cccc(-c2ccccc2CN(C(=O)c2ccc3c(c2)OCO3)c2ccc(OC)cc2)c1`, the XC50 is 1110 nM.

`CCCCC(=O)Nc1nc2ccc([N+](=O)[O-])cc2s1` showed an XC50 of 756 nM. With `CCC(C(C)C)n1ccc2c3c(N)nc(N)nc3ccc21` (configuration not stated), the XC50 was found to be 3.2 nM. In turn, `COc1cc(C(=O)NC2CCC(CN3CCC(c4c[nH]c5ccccc45)CC3)CC2)cc(Cl)n1` (configuration not stated) came in with an XC50 of 688 nM. Regarding `Clc1ccc(-c2cnc3ccc(NCc4ccncc4)nn23)cc1`, the XC50 was determined as 891 nM. On to `CCCC(C)N(Cc1ccc(C(C)(C)C)cc1)C(=O)c1ccc(OC)cc1` (configuration not stated), for which the XC50 amounted to 111 nM. Consider `O=C(Nc1ccc2c(c1)CCN2C1CCN(Cc2cccc(F)c2F)C1)c1ccco1` (configuration not stated), for which the XC50 worked out at 787 nM.

As for `COc1ccc2nccc([C@@H](O)CN3CCC(NCc4cc5ccccn5n4)CC3)c2c1`, the XC50 came to 1570 nM. Next, `Cc1cccc2nc(-c3cccc(-c4cccc(NC(=O)C(C)CN5CCN(C)CC5)c4)c3)[nH]c12` (configuration not stated): 537 nM. Next, `O=C(Nc1cccc(-c2nn3ccccc3c2-c2ccnc(Nc3ccccc3)n2)c1)c1c(F)cccc1F`: 715 nM; `Cc1[nH]c2ccccc2c1CC1CCN(CC2CCN(C(=O)/C=C/c3ccc(Cl)c(Cl)c3)CC2)CC1`: 950 nM; `Clc1cc(Nc2ncnc3sc(C#C[C@H]4CCCN4)cc23)ccc1OCc1cccnc1Cl`: 569 nM. `CC(C)c1nc2c(N)nc(N)nc2nc1N` showed an XC50 of 1310 nM. To `CCOC(=O)c1ccc(OCc2ccc(-c3ccccc3)cc2)cc1` belongs 813 nM.

`CCc1cccc(OCC2CCCN(c3ccc(C(=O)NC4CC4)cn3)C2)c1` (configuration not stated) returned an XC50 of 1440 nM. To `Cc1cc(N[C@@H](CC(C)C)C(=O)NCCCOC(C)C)nc(NCCc2ccc(F)cc2)n1` belongs 1250 nM; to `OCCn1c(CNCCCNc2nc3ccccc3[nH]2)cc2c(Cl)cc(Cl)cc21`, 806 nM; to `c1cncc(CNc2ncc(-c3ccsc3)c(-c3nccs3)n2)c1`, 1380 nM. `CC[C@H]1CN2CC[C@@H]1C[C@H]2[C@H](O)c1cc(N2CCC(c3ccccc3)CC2)nc2ccc(OC)cc12`: the XC50 came out at 346 nM. `COc1ccc(-c2ccc(NC(=O)c3cccc(Cl)c3)cc2)cc1CN(C)CCN(C)C` came in with an XC50 of 782 nM. Next, `COc1ccc(CN2CCC(Oc3cccc(NC(=O)c4ccc(C(F)(F)F)cc4)c3)CC2)cc1`: 743 nM; `CC(C)CC(C)NC(=O)C1Cc2c([nH]c3cc(Cl)ccc23)C2(CCN(CCc3ccccc3)CC2)N1` (configuration not stated): 815 nM. Regarding `CS(=O)(=O)N(c1cccc(F)c1)c1cc(C(=O)N[C@@H](Cc2ccccc2)[C@H](O)CNCc2cccc(C(F)(F)F)c2)cc(N2CCCC2=O)c1`, the XC50 was 910 nM. In turn, `Cc1cccc2nc(-c3cccc(-c4cccc(CNCCCN5CCCC5=O)c4)c3)[nH]c12` gave an XC50 of 743 nM. As for `COc1cccc(Nc2nc(N)c3ccccc3n2)c1`, the XC50 worked out at 934 nM. Next, `CCCC[C@@H](C(=O)NCc1ccccc1C(F)(F)F)N1C(=O)CCC1C(=O)Nc1ccc([N+](=O)[O-])cc1` (some centres not stated): 848 nM; `COc1ccc2nc3cc(Cl)ccc3c(N)c2c1`: 165 nM. As to `O=C(NCCCCN1CCC(c2ccc(C(F)(F)F)cc2C(F)(F)F)CC1)c1ccc(NC(=O)c2ccc(Cl)cc2)cc1`, the XC50 was found to be 613 nM. With `O=C(NCCCCN1CCC(c2ccc(-c3ccco3)cc2)CC1)c1ccc(NC(=O)c2ccc(Cl)cc2)cc1`, the XC50 worked out at 538 nM. As for `C=C[C@H]1CN2CC[C@H]1C[C@H]2[C@H](OS(=O)(=O)O)c1ccnc2ccccc12`, the XC50 worked out at 624 nM. Turning to `Cc1ccc(C2=NNC3(S2)C(=O)N(C)c2ccccc23)cc1` (configuration not stated), the XC50 came to 1020 nM. `CC(C)[C@H](NC(=O)c1ccc(O)c(-c2ccc(Cl)c(Cl)c2)c1)C(=O)NCCN1CCOCC1` registered an XC50 of 911 nM. With `CCC(C)NS(=O)(=O)c1ccc2nc(Nc3ccc(C)c(Cl)c3)n(C(C)C(C)C)c2c1` (configuration not stated), the XC50 was determined as 375 nM.

`COc1cccc(CN2CCC(C(=O)Nc3ccc(-c4nc5ccccc5[nH]4)cc3)CC2)c1` came in with an XC50 of 627 nM. For the compound `Cc1ccc(O)cc1Nc1ccnc2ccc(-c3csc(CNCCN4CCOCC4)n3)cc12`, the XC50 amounted to 153 nM. With `Cc1cc(N[C@@H](Cc2ccccc2)C(=O)NCCOc2ccccc2)nc(NCCc2ccccn2)n1`, the XC50 stood at 1520 nM. Regarding `CCCCNC(=O)[C@@H](NC(=O)c1ccc(O)c(-c2ccc(Cl)c(Cl)c2)c1)C(C)C`, the XC50 was 230 nM. Compound `COc1cc(OC)cc(C(=O)Nc2cccc(-c3cn4ccc(C)cc4n3)c2)c1` had an XC50 of 994 nM. `c1cncc(CCNCc2cccc(-c3ccc(-c4nc5ccccc5[nH]4)s3)c2)c1` showed an XC50 of 202 nM. To `CCOc1ccc2c(=NN=Cc3ccccc3F)cc(C)[nH]c2c1` belongs 676 nM; to `COc1cc2ccccc2cc1CNCCCCCCNCc1cc2ccccc2cc1OC`, 720 nM. `N=c1[nH]c2cccc3ccc4cccc1c4c32` had an XC50 of 918 nM. In the case of `Cc1ccc(CNC(=O)[C@H](Cc2ccccc2)Nc2cc(C)nc(NCC3CCCCC3)n2)cc1`, the XC50 stood at 899 nM.

Regarding `CCN(CC)CCN(Cc1ccc(-c2ccc(C(F)(F)F)cc2)cc1)C(=O)Cn1c(CCc2cc(F)c(F)cc2F)nc(=O)c2ccccc21`, the XC50 stood at 718 nM. `CCCC(C)Nc1nc(C)cc(N[C@@H](Cc2ccccc2)C(=O)Nc2ccccc2)n1` (some centres not stated) returned an XC50 of 863 nM. On to `CCOc1ccc(C(C)NC(=O)c2cc(Cl)ccc2OC)cc1OCC` (configuration not stated), for which the XC50 worked out at 971 nM. Next, `C[C@@H](CNc1ccnc(Nc2ccc3[nH]c(=O)[nH]c3c2)n1)c1ccccc1`: 1100 nM; `Cc1noc(C)c1-c1cccc(CNCc2cccc(-c3ccc(-c4nc5ccccc5[nH]4)s3)c2)c1`: 204 nM; `Cc1[nH]c(C)c(-c2ccc(-c3ccc(OC(F)(F)F)cc3)nc2)c(=O)c1Br`: 249 nM. Compound `COc1cc(Nc2nccc(N3CCC(NC(=O)C4COc5ccccc5O4)C3)n2)cc(OC)c1OC` (configuration not stated) showed an XC50 of 924 nM.

As to `CCc1cc2c(cc1OCCN(C)C)N(C(=O)Nc1ccc(-c3ccncc3)c(Cl)c1)CC2`, the XC50 amounted to 840 nM.

Consider `COc1cccc(O)c1CN1CCC2(CCCN(Cc3ccc(F)cc3)C2)C1` (configuration not stated), for which the XC50 worked out at 865 nM. In turn, `C1=C(c2c[nH]c3ccccc23)CCN(Cc2ccccc2)C1` returned an XC50 of 1040 nM.

`COc1cc(Nc2nc(N)c3cc(OC)c(OC)cc3n2)cc(OC)c1` displayed an XC50 of 272 nM.

Turning to `CC(=O)Nc1ccc(OCCN(Cc2ccccc2OC(F)(F)F)c2ccc(C(F)(F)F)c(C#N)c2)c(Cl)c1`, the XC50 amounted to 456 nM. `COCCNCc1ncsc1-c1ccc2c(Nc3cc(O)ccc3C)ccnc2c1`: the XC50 turned out to be 705 nM. In the case of `CNC(=O)c1ccccc1Nc1nc(Nc2cccnc2)ncc1C`, the XC50 was 101 nM. To `CN1CC[C@@H](Oc2cc(CNC(=O)c3ccc(-c4ccc(Cl)cc4)s3)ccc2C(F)(F)F)C1` belongs 1030 nM. As for `COC(=O)c1cccc(CNCc2ccc(-c3ccc(-c4nc5cc(F)ccc5[nH]4)s3)cc2)c1`, the XC50 turned out to be 588 nM. To `O=C(NC1CC1)c1cnc(N2CCN(Cc3ccc(Cl)cc3)CC2)c(Cl)c1` belongs 847 nM; to `COc1cc(NC(=O)Nc2cc(C)nc3ccccc23)cc(OC)c1`, 396 nM; to `CCOc1ccc(-c2nonc2NC(=O)c2ccc(Cl)cc2)cc1OCC`, 988 nM.

The compound `O=S(=O)(NCCN1CCCC1)c1cccc(-c2ccc(CNCc3ccsc3)cc2)c1` returned an XC50 of 804 nM. For `O=C(NC1CC1)c1ccc(N2CCC(Cc3ccccc3)CC2)nc1`, the XC50 is 761 nM. `N#Cc1cccc(C(=O)N2CCOC(CCN3CCC(c4ccccc4)CC3)(c3ccc(Cl)c(Cl)c3)C2)c1` (configuration not stated) yielded an XC50 of 1040 nM. Consider `Cn1nc(-c2cccc(CNC3CCc4ccccc43)c2)c2cnc(NCCCN3CCCC3)nc21` (configuration not stated), for which the XC50 was 877 nM. In turn, `CCCCc1nc2nc(N)nc(N)c2cc1CCC` gave an XC50 of 308 nM. On to `O=C1COC(c2ccccc2)(c2ccccc2)CN1CC1CCN(Cc2ccc(O)cc2Cl)C1` (configuration not stated), for which the XC50 is 999 nM. With `CN(C)CCCOc1ccc(CCCCc2ccc(Cl)cc2C(=O)c2ccccc2)cc1`, the XC50 turned out to be 1030 nM.

The compound `CCN1CCN(CCCNc2ccnc3cc(Cl)ccc23)CC1` displayed an XC50 of 67 nM. Next, `O=C(N1CCN(c2ccnc3cc4c(cc23)N(Cc2ccccc2)CC4)CC1)C(F)(F)F`: 257 nM; `COc1ccc2nccc([C@@H](O)CN3CCC(NC(=O)c4cc5cccnc5[nH]4)CC3)c2c1`: 894 nM; `O=C(Nc1ccccc1-c1nc2ccccc2s1)C(Cl)(Cl)Cl`: 638 nM.
